We go through eleven compounds from patent US20230382949A1 (HEPTARES THERAPEUTICS LIMITED, priority 2020, published 2023).

Read-outs that look alike come from different tables or passages of the source. Starred links: 1 amine or outer side, 2 acyl side, 3 side chain; linkers in the order of their positions; H or OH if unused. Non-standard residues stand in square brackets, D forms with d. Residues, ends and D or L forms follow the SMILES beside them. *: point of attachment. Ala(piperidin-4-yl) = O=C([C@H](CC1CCN([*:3])CC1)N[*:1])[*:2]; Malonyl(2,2-Me2,histaminyl) = CC(C)(C(=O)NCCc1cnc[nH]1)C(=O)*; Ala(1-imidazolyl) = N[C@@H](Cn1ccnc1)C(=O)O; Bip = N[C@@H](Cc1ccc(-c2ccccc2)cc1)C(=O)O; dBip = N[C@H](Cc1ccc(-c2ccccc2)cc1)C(=O)O; Oic = O=C(O)[C@@H]1C[C@@H]2CCCC[C@@H]2N1; Phe(4-Br) = N[C@@H](Cc1ccc(Br)cc1)C(=O)O; dPhe(4-Br) = N[C@H](Cc1ccc(Br)cc1)C(=O)O; X5 = CC(C)(C(=O)NCc1c[nH]cn1)C(=O)*; hArg = N=C(N)NCCCC[C@H](N)C(=O)O; hPhe = N[C@@H](CCc1ccccc1)C(=O)O; Pip = O=C(O)[C@@H]1CCCCN1; Aib = CC(C)(N)C(=O)O A value given as a limit tells only on which side of the number the result lay.

The target in assay [1] is T1, human Apelin receptor (Homo sapiens, UniProt P35414).
T1 sequence (P35414 1-380): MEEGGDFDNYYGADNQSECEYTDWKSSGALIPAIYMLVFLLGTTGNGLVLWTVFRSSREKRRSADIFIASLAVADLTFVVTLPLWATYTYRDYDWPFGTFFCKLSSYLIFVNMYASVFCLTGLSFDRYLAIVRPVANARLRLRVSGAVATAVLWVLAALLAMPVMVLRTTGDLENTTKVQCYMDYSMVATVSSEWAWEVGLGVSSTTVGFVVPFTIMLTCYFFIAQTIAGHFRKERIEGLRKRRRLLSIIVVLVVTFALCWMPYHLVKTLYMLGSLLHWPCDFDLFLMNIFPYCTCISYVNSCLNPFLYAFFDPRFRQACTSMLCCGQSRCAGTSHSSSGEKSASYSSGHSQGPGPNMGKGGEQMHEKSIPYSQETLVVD
The assay can be described thus: cAMP accumulation assay (HTRF), functional agonism of human Apelin receptors. The assay is classed as cell-based. As to conditions: for Emax: CHO. From the text:
cAMP functional assay. cAMP production was quantified using the Homogeneous Time-Resolved Fluorescence (HTRF) cAMP dynamic-2 assay (Cisbio, France).

Assay [2] deals with T2, human Apelin receptor (Homo sapiens, UniProt P35414).
T2 construct: host or cells: CHO-K1 cells
The assay can be described thus: β-arrestin accumulation assay, functional agonism of human Apelin receptors. The assay is classed as cell-based. The procedure, abridged:
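After 16 h at 37° C., cells were exposed to increasing agonist concentrations in serum-free medium for 90 min at 37° C. Detection reagent added for 60 min in the dark; receptor activation read by fluorescence and EC50 derived from concentration-response curves.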
T2 sequence (P32121 whole entry partner, one chain of several): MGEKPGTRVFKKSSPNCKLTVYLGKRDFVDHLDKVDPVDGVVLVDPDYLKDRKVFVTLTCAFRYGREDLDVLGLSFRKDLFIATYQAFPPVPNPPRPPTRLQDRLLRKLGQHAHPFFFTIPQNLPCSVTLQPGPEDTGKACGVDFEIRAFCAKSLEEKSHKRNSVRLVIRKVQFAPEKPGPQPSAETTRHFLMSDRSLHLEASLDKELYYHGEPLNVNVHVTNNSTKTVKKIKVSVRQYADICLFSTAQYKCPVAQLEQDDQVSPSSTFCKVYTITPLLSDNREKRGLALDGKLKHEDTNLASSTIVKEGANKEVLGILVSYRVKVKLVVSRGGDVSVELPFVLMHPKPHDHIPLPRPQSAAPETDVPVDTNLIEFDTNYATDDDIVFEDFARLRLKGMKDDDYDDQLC

[3] abbreviates: Human Apelin agonist cAMP assay, CHO cells stably expressing the human Apelin receptor, 3 uM forskolin.
[4] abbreviates: pEC50, Human Apelin agonist cAMP assay, CHO cells stably expressing the human Apelin receptor, 3 uM forskolin.

For `CC(C)C[C@H](NC(=O)[C@@H](CCCNC(=N)N)NC(=O)C1C2CC2CN1C(=O)[C@H](CCCCNC(=N)N)NC(=O)[C@H](CCC(N)=O)NC(=O)[C@@H](CCCNC(=N)N)NC(=O)C(C)(C)C(=O)NCCc1c[nH]cn1)C(=O)NC(C)(C)C(=O)N[C@@H](Cc1c[nH]cn1)C(=O)N[C@@H](CC1CCNCC1)C(=O)NCC(=O)N1[C@H](C(=O)N[C@@H](Cc2ccc(Br)cc2)C(=O)N2CCC[C@H]2C(=O)N[C@H](Cc2ccc(-c3ccccc3)cc2)C(=O)O)C[C@@H]2CCCC[C@@H]21` (single isomer, unassigned) [37 Isomer 1], at human Apelin receptor [1] (setting [3]), the Emax is 68.6%. Besides, the results for the EC50 on human Apelin receptor [1] (setting [4]) and on human Apelin receptor [2] were 0.01 µM and greater than 100 µM, respectively.
Regarding `CC(C)C[C@H](NC(=O)[C@H](CCCNC(=N)N)NC(=O)[C@@H]1CCCN1C(=O)[C@@H](CCCNC(=N)N)NC(=O)[C@H](CCC(N)=O)NC(=O)C(C)(C)C(=O)NCCc1cnc[nH]1)C(=O)NC(C)(C)C(=O)N[C@@H](Cc1c[nH]cn1)C(=O)N[C@@H](CC1CCNCC1)C(=O)NCC(=O)N1[C@H](C(=O)N[C@@H](Cc2ccc(Br)cc2)C(=O)N2CCC[C@H]2C(=O)N[C@H](Cc2ccc(Br)cc2)C(=O)O)C[C@@H]2CCCC[C@@H]21` [Example 41] ({Malonyl(2,2-Me2,histaminyl)}-Q[dR]PRL[Aib]H[Ala(piperidin-4-yl)]G[Oic][Phe(4-Br)]P[dPhe(4-Br)]-OH), at human Apelin receptor [1] (read-out: Emax), the Emax turned out to be 46.1%. Besides, the EC50 on human Apelin receptor [1] (read-out: pEC50 (converted)) is 0.0501 µM; on human Apelin receptor [2] it was greater than 10 µM.
Compound `CC(C)C[C@H](NC(=O)[C@@H](CCCNC(=N)N)NC(=O)[C@@H]1CCCCN1C(=O)[C@H](CCCCNC(=N)N)NC(=O)[C@H](CCC(N)=O)NC(=O)[C@@H](CCCNC(=N)N)NC(=O)C(C)(C)C(=O)NCCc1c[nH]cn1)C(=O)NC(C)(C)C(=O)N[C@@H](Cc1c[nH]cn1)C(=O)N[C@@H](CC1CCNCC1)C(=O)NCC(=O)N1[C@H](C(=O)N[C@@H](Cc2ccc(Br)cc2)C(=O)N2CCC[C@H]2C(=O)N[C@H](Cc2ccc(-c3ccccc3)cc2)C(=O)O)C[C@@H]2CCCC[C@@H]21` [Example 12] ({Malonyl(2,2-Me2,histaminyl)}-[dR]Q[hArg][Pip][dR]L[Aib]H[Ala(piperidin-4-yl)]G[Oic][Phe(4-Br)]P[dBip]-OH) gave a maximal response (Emax) at human Apelin receptor [1] (setting [3]) of 98.9%. In addition, the EC50 on human Apelin receptor [1] (setting [4]) is 0.00794 µM; at human Apelin receptor [2], greater than 10 µM.
Compound `CC(C)C[C@H](NC(=O)[C@@H](CCCNC(=N)N)NC(=O)[C@@H]1CCCN1C(=O)[C@H](CCCCNC(=N)N)NC(=O)[C@@H](CCC(N)=O)NC(=O)C(C)(C)C(=O)NCCc1cnc[nH]1)C(=O)NC(C)(C)C(=O)N[C@@H](Cc1c[nH]cn1)C(=O)N[C@@H](CC1CCNCC1)C(=O)NCC(=O)N1[C@H](C(=O)N[C@@H](Cc2ccc(Br)cc2)C(=O)N2CCC[C@H]2C(=O)N[C@H](Cc2ccc(-c3ccccc3)cc2)C(=O)O)C[C@@H]2CCCC[C@@H]21` [Example 50] ({Malonyl(2,2-Me2,histaminyl)}-[dQ][hArg]P[dR]L[Aib]H[Ala(piperidin-4-yl)]G[Oic][Phe(4-Br)]P[dBip]-OH) registered an Emax on human Apelin receptor [1] (setting [3]) of 56.5%. Moreover, the EC50 at human Apelin receptor [1] (setting [4]) is 0.0398 µM; on human Apelin receptor [2], greater than 10 µM.
In the same order, the values of `CC(C)C[C@H](NC(=O)[C@@H](CCCNC(=N)N)NC(=O)[C@@H]1CCCN1C(=O)[C@H](CCCCNC(=N)N)NC(=O)[C@H](CCC(N)=O)NC(=O)[C@@H](CCCNC(=N)N)NC(=O)C(C)(C)C(=O)NCCc1c[nH]cn1)C(=O)NC(C)(C)C(=O)N[C@@H](Cc1c[nH]cn1)C(=O)N[C@@H](CC1CCNCC1)C(=O)NCC(=O)N1[C@H](C(=O)N[C@@H](Cc2ccc(Br)cc2)C(=O)N2CCCC[C@H]2C(=O)N[C@H](Cc2ccc(-c3ccccc3)cc2)C(=O)O)C[C@@H]2CCCC[C@@H]21` [Example 21] ({Malonyl(2,2-Me2,histaminyl)}-[dR]Q[hArg]P[dR]L[Aib]H[Ala(piperidin-4-yl)]G[Oic][Phe(4-Br)][Pip][dBip]-OH) are 54.5%, 0.01 µM and greater than 1 µM.
Turning to `CC(C)C[C@H](NC(=O)[C@@H](CCCNC(=N)N)NC(=O)[C@@H]1CCCN1C(=O)[C@H](CCCCNC(=N)N)NC(=O)[C@H](CCc1ccccc1)NC(=O)[C@@H](CCCNC(=N)N)NC(=O)C(C)(C)C(=O)NCCc1c[nH]cn1)C(=O)NC(C)(C)C(=O)N[C@@H](Cc1c[nH]cn1)C(=O)N[C@@H](CC1CCNCC1)C(=O)NCC(=O)N1[C@H](C(=O)N[C@@H](Cc2ccc(Br)cc2)C(=O)N2CCC[C@H]2C(=O)N[C@H](Cc2ccc(-c3ccccc3)cc2)C(=O)O)C[C@@H]2CCCC[C@@H]21` [Example 8] ({Malonyl(2,2-Me2,histaminyl)}-[dR][hPhe][hArg]P[dR]L[Aib]H[Ala(piperidin-4-yl)]G[Oic][Phe(4-Br)]P[dBip]-OH), the Emax at human Apelin receptor [1] (setting [3]) came to 56.1%. For the same compound, the EC50 is 0.0158 µM at human Apelin receptor [1] (setting [4]) and greater than 10 µM on human Apelin receptor [2].
`CC(C)C[C@H](NC(=O)[C@H](CCCNC(=N)N)NC(=O)[C@@H]1CCCN1C(=O)[C@@H](CCCNC(=N)N)NC(=O)[C@H](CCC(N)=O)NC(=O)[C@@H](CCCNC(=N)N)NC(=O)C(C)(C)C(=O)NCCc1c[nH]cn1)C(=O)NC(C)(C)C(=O)N[C@@H](Cc1c[nH]cn1)C(=O)N[C@@H](CC1CCNCC1)C(=O)NCC(=O)N1[C@H](C(=O)N[C@@H](Cc2ccc(Br)cc2)C(=O)N2CCC[C@H]2C(=O)N[C@H](Cc2ccc(-c3ccccc3)cc2)C(=O)O)C[C@@H]2CCCC[C@@H]21` [Example 25] ({Malonyl(2,2-Me2,histaminyl)}-[dR]Q[dR]PRL[Aib]H[Ala(piperidin-4-yl)]G[Oic][Phe(4-Br)]P[dBip]-OH) yielded a maximal response (Emax) on human Apelin receptor [1] (setting [3]) of 92.7%. Further, the EC50 at human Apelin receptor [1] (setting [4]) was 0.0158 µM; on human Apelin receptor [2] it was greater than 10 µM.
For the compound `CC(C)C[C@H](NC(=O)[C@@H](CCCNC(=N)N)NC(=O)[C@@H]1CCCN1C(=O)[C@H](CCCCNC(=N)N)NC(=O)[C@H](CCC(N)=O)NC(=O)C(C)(C)C(=O)NCc1c[nH]cn1)C(=O)NC(C)(C)C(=O)N[C@@H](Cc1c[nH]cn1)C(=O)N[C@@H](CC1CCNCC1)C(=O)NCC(=O)N1[C@H](C(=O)N[C@@H](Cc2ccc(Br)cc2)C(=O)N2CCC[C@H]2C(=O)N[C@H](Cc2ccc(-c3ccccc3)cc2)C(=O)O)C[C@@H]2CCCC[C@@H]21` [Example 53] (X5-Q[hArg]P[dR]L[Aib]H[Ala(piperidin-4-yl)]G[Oic][Phe(4-Br)]P[dBip]-OH), the Emax on human Apelin receptor [1] (read-out: Emax) is 79.2%. The EC50 on human Apelin receptor [1] (read-out: pEC50 (converted)) is 0.0316 µM; on human Apelin receptor [2] it was greater than 10 µM.
With `CC(C)C[C@H](NC(=O)[C@@H](CCCNC(=N)N)NC(=O)[C@@H]1CCCN1C(=O)[C@H](CCCCNC(=N)N)NC(=O)[C@H](CCC(N)=O)NC(=O)[C@@H](CCCNC(=N)N)NC(=O)C(C)(C)C(=O)NCCc1cnc[nH]1)C(=O)NC(C)(C)C(=O)N[C@@H](Cn1ccnc1)C(=O)N[C@@H](CC1CCNCC1)C(=O)NCC(=O)N1[C@H](C(=O)N[C@@H](Cc2ccc(Br)cc2)C(=O)N2CCC[C@H]2C(=O)N[C@H](Cc2ccc(-c3ccccc3)cc2)C(=O)O)C[C@@H]2CCCC[C@@H]21` [Example 28] ({Malonyl(2,2-Me2,histaminyl)}-[dR]Q[hArg]P[dR]L[Aib][Ala(1-imidazolyl)][Ala(piperidin-4-yl)]G[Oic][Phe(4-Br)]P[dBip]-OH), the Emax on human Apelin receptor [1] (setting [3]) came to 27.4%. For the same compound, the EC50 was 0.0158 µM on human Apelin receptor [1] (setting [4]) and greater than 10 µM on human Apelin receptor [2].
On to `CC(C)C[C@H](NC(=O)[C@@H](CCCNC(=N)N)NC(=O)[C@@H]1CCCN1C(=O)[C@H](CCCCNC(=N)N)NC(=O)[C@H](CCC(N)=O)NC(=O)[C@@H](CCCNC(=N)N)NC(=O)C(C)(C)C(=O)NCc1c[nH]cn1)C(=O)NC(C)(C)C(=O)N[C@@H](Cc1c[nH]cn1)C(=O)N[C@@H](CC1CCNCC1)C(=O)NCC(=O)N1[C@H](C(=O)N[C@@H](Cc2ccc(Br)cc2)C(=O)N2CCC[C@H]2C(=O)N[C@H](Cc2ccc(-c3ccccc3)cc2)C(=O)O)C[C@@H]2CCCC[C@@H]21` [Example 27] (X5-[dR]Q[hArg]P[dR]L[Aib]H[Ala(piperidin-4-yl)]G[Oic][Phe(4-Br)]P[dBip]-OH), for which, at human Apelin receptor [1] (read-out: Emax), the Emax is 66.1%. Further, the EC50 is 0.00631 µM at human Apelin receptor [1] (read-out: pEC50 (converted)) and greater than 10 µM at human Apelin receptor [2].
For `CC(C)C[C@H](NC(=O)[C@@H](CCCNC(=N)N)NC(=O)[C@@H]1CCCN1C(=O)[C@H](CCCCNC(=N)N)NC(=O)[C@H](CCC(N)=O)NC(=O)[C@@H](CCCNC(=N)N)NC(=O)C(C)(C)C(=O)NCCc1c[nH]cn1)C(=O)NC(C)(C)C(=O)N[C@@H](Cc1c[nH]cn1)C(=O)N[C@@H](CC1CCNCC1)C(=O)NCC(=O)N1[C@H](C(=O)N[C@@H](Cc2ccc(-c3ccccc3)cc2)C(=O)N2CCC[C@H]2C(=O)N[C@H](Cc2ccc(-c3ccccc3)cc2)C(=O)O)C[C@@H]2CCCC[C@@H]21` [Example 19] ({Malonyl(2,2-Me2,histaminyl)}-[dR]Q[hArg]P[dR]L[Aib]H[Ala(piperidin-4-yl)]G[Oic][Bip]P[dBip]-OH), on human Apelin receptor [1] (setting [3]), the Emax was found to be 97%. Moreover, the results for the EC50 on human Apelin receptor [1] (setting [4]) and at human Apelin receptor [2] were 0.02 µM and greater than 10 µM, respectively.
